Measured values as given in ChEMBL document CHEMBL1157954, “Cycloleonuripeptides E and F, cyclic nonapeptides from Leonurus heterophyllus” (2006).
Residues, ends and D or L forms follow the SMILES beside them.

Tested on: Aorta
Assay: Vasorelaxation activity in Wistar rat thoracic aorta assessed as inhibition of norepinephrine-induced contraction at 10^-4 M
Type: functional
Set-up: scale not given: the % may be the effect or the level left

SMILES | Activity [%]
CC(C)C[C@@H]1NC(=O)[C@@H]2CCCN2C(=O)[C@H](Cc2ccc(O)cc2)NC(=O)CNC(=O)[C@@H]2CCCN2C(=O)[C@@H]2CCCN2C(=O)[C@H](Cc2ccc(O)cc2)NC(=O)[C@H](Cc2ccccc2)NC(=O)[C@@H]2CCCN2C1=O [CYCLOLEONURIPEPTIDE F] (cyclo(FYPPGYPLP)) | 40
CC[C@H](C)[C@@H]1NC(=O)[C@@H]2CCCN2C(=O)[C@H](C)NC(=O)[C@@H]2CCCN2C(=O)[C@H]([C@@H](C)O)NC(=O)[C@H](Cc2ccccc2)NC(=O)[C@H](C)NC(=O)[C@H](C)NC(=O)[C@H](C(C)C)NC1=O [CYCLOLEONURIPEPTIDE E] (cyclo(AAFTPAPIV)) | 32
